Assay [1] has as its target T1, Angiotensin I-converting enzyme (ACE) (Oryctolagus cuniculus, UniProt P12822).
T1 construct: sourced from rabbit lungs; purchased Sigma-Aldrich (St. Louis, MO, USA); host or cells: rabbit lung tissue
T1 sequence (P12822 34-1310): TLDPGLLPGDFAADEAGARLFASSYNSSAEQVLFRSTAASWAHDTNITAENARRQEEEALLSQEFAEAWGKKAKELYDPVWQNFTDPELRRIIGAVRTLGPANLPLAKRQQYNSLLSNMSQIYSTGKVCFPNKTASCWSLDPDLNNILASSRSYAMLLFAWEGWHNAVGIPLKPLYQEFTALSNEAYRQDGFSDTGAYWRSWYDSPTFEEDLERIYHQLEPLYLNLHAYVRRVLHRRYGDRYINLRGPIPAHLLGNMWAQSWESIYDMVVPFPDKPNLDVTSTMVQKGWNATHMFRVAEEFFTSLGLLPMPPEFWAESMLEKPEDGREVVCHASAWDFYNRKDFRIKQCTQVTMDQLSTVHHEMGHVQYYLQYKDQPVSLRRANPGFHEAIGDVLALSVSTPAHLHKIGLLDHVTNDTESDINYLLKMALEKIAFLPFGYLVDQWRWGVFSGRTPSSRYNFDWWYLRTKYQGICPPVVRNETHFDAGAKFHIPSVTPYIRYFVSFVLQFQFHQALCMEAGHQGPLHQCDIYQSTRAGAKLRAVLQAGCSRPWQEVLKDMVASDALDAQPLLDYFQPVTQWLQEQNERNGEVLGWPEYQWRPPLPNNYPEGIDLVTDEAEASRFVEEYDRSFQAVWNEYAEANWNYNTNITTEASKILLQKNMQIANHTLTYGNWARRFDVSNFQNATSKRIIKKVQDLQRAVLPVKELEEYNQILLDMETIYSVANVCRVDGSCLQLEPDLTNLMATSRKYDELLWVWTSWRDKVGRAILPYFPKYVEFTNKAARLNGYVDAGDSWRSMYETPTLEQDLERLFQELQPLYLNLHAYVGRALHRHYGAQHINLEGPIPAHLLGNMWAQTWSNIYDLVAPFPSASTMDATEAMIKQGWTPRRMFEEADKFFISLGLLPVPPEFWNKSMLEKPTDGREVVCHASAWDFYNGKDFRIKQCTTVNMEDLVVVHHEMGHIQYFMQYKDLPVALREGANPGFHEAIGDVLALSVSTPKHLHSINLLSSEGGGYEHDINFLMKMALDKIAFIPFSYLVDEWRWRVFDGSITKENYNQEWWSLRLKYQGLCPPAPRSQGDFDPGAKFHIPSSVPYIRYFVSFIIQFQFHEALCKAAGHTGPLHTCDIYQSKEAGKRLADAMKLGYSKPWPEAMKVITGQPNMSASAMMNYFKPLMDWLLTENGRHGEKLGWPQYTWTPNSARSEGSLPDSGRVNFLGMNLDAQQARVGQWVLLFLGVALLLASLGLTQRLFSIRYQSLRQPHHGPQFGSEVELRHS
Kind of assay: In vitro simulated oral gastrointestinal digestion, ACE-inhibition read-out. It counts as biochemical, rabbit. The conditions noted are these: initially (before digestion), captopril as reference, Figure 5b. As to the method: ACE-inhibitory activity was assessed by following the experimental procedure reported by Dou et al., with slight modifications. A solution of borate-buffered HEPES (50 mM, pH 8.3) was dispensed into a 96-well plate, followed by the addition of samples (100 µL), ACE (50 µL, 0.1 U/mL, prepared from 50 mM borate buffer pH 8.3), and FAPGG(N-[3-(2-Furyl)acryloyl]-Phe-Gly-Gly) (50 µL, 1 mM) into each well. The negative control group was substituted with 100 µL of borate-buffered HEPES. The initial absorbance values of a1 and b1 for both the blank and sample groups were then measured at 340 nm (Thermo Fisher, Waltham, MA, USA). The sample group was then incubated at 37 °C for 30 min, and subsequently, the absorbance values were read again at 340 nm (a2, b2). (1) ACE inhibition rate=A−B/A×100% where A = a1 − a2, and B = b1 − b2. The initial absorbance of the blank: a1—blank; b1—sample. a2: the absorbance values after incubation at 37 °C for 30 min. a2: blank; b2: samples.
The in vitro digestion process was utilized. A quantity of 1 mg of the sample was dissolved in 1 mL of water and preheated in a water bath at 37 °C. Then, it was mixed with 1 mL of artificial saliva whose pH was adjusted to pH 6.8. The mixture was then agitated at 100 rpm for 1 min at 37 °C. Subsequently, the pH was adjusted to pH 2.0 using 1 M HCl and added in equal amounts to the simulated gastric digest. […]

The target of assay [2] is T1, Angiotensin I-converting enzyme (ACE). Kind of assay: ACE-inhibitory activity (FAPGG substrate, absorbance at 340 nm). It is filed as biochemical, rabbit. To be noted: synthetic peptides, Figure 7; experiments in triplicate. As to the method: ACE-inhibitory activity was assessed by following the experimental procedure reported by Dou et al., with slight modifications. […] The negative control group was substituted with 100 μL of borate-buffered HEPES. The initial absorbance values of a1 and b1 for both the blank and sample groups were then measured at 340 nm (Thermo Fisher, Waltham, MA, USA). The sample group was then incubated at 37 °C for 30 min, and subsequently, the absorbance values were read again at 340 nm (a2, b2). […] The initial absorbance of the blank: a1-blank; b1-sample. a2: the absorbance values after incubation at 37 °C for 30 min. a2: blank; b2: samples.

Assay [3] concerns ACE. To be noted: cited from earlier work. As to the method:
According to the literature, ACE-inhibitory peptides with an IC50 between about 0.32 and 1000 μM have the potential to lower blood pressure. […] We therefore hypothesized that the peptides from FAGDDAPR, QGPIGPR, and GPTGPAGPR may have antihypertensive effects. […] Subsequently, peptides from the ribbonfish hydrolysates were isolated and identified through a combination of filtration and gel filtration chromatography techniques. […] Similarly, Dong et al. used alkaline protease to hydrolyze tilapi ...

Setting [4] is: literature examples of antihypertensive peptides, the reference is not clearly printed, read-out: IC50.

A word on the IC50: it is the midpoint of a concentration-inhibition curve.

Where two headings read alike, the source gives them in different places. Where no end group is shown, it is not given here.

Take FAGDDAPR [FAGDDAPR]: in assay [1], the “ACE-inhibitory activity lower than that of captopril” value was 31.17%. The substance further returned a half-inhibitory concentration (IC50) in assay [2] of 263 µM.
Turning to FRVW, the IC50 in assay [3] (from Pinctada fucata, read-out: ACE-inhibitory IC50) was 18.3 µM.
In turn, GPTGPAGPR [GPTGPAGPR] came in with an IC50 in assay [2] of 168 µM.
On to LEPWR, for which, in assay [3] (from Pacific saury neutral protease hydrolysate, read-out: ACE-inhibitory IC50), the concentration for half-maximal inhibition (IC50) was 99.5 µM.
For the substance QGPIGPR [QGPIGPR], in assay [2], 81.1 µM corresponded to half-maximal inhibition (IC50).
Turning to VGINYW, the IC50 in assay [3] (setting [4]) is 15.1 µM.
On to “VGLFPSRSF [literature oligopeptide from tilapia (Oreochromis niloticus) skin hydrolysate]”, for which the 50% inhibitory concentration (IC50) in assay [3] (from tilapia skin alkaline protease hydrolysate, read-out: ACE-inhibitory IC50) is 61.4 µM.
With WAGP, in assay [3] (setting [4]), the IC50 is 141 µM.

(Values after PMC11117660, “Novel Angiotensin-Converting Enzyme-Inhibitory Peptides Obtained from Trichiurus lepturus: Preparation, Identification and Potential Antihypertensive Mechanism” (Biomolecules, 2024).)
